# Measured values published in PubChem BioAssay AID2060904 (Molecular Pharmacology Branch, DTP, NCI, 2025).
# Test system: 349418-098-R-PDC complex spheroid viability
# Assay: Anticancer human tumor 349418-098-R-PDC patient-derived lung adenocarcinoma cell line growth inhibition [RAS]
# Details: for IC50: curve of first compound; for viability, T/C: stronger effect = lower value
# Method in brief: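 Agents were tested in combination matrices in half-log decrements from a top concentration at or near clinical Cmax (10 microM if undetermined). Targets were multi-cell spheroids of tumour lines plus HUVEC and MSC stromal cells.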
# 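Note: spheroids exposed to compound for seven days before viability readout.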
compound,measurement,setting,value
CC1(C)CCC(Nc2ncc(C(F)(F)F)c(-c3c[nH]c4c(P(C)(C)=O)c(C#N)ccc34)n2)CN1 (centres undefined) + C#Cc1c(F)ccc2cc(O)cc(-c3ncc4c(N5CC6CCC(C5)N6)nc(OCC56CCCN5CC(F)C6)nc4c3F)c12,IC50,second compound 0.0316 µM,1.12 nM
same,IC50,second compound 0.1 µM,< 0.949 nM
same,IC50,second compound 0.316 µM,< 0.949 nM
same,IC50,second compound 1 µM,1.34 nM
same,IC50,second compound 3.16 µM,< 0.949 nM
same,IC50,second compound 10 µM,< 0.949 nM
same,"viability, T/C","second compound 0.0316 µM, first compound 0.000949 µM",54.5%
same,"viability, T/C","second compound 0.0316 µM, first compound 0.003 µM",25.6%
same,"viability, T/C","second compound 0.0316 µM, first compound 0.00949 µM",14.3%
same,"viability, T/C","second compound 0.0316 µM, first compound 0.03 µM",11.7%
same,"viability, T/C","second compound 0.0316 µM, first compound 0.0949 µM",11.1%
same,"viability, T/C","second compound 0.0316 µM, first compound 0.3 µM",7.01%
same,"viability, T/C","second compound 0.1 µM, first compound 0.000949 µM",34.8%
same,"viability, T/C","second compound 0.1 µM, first compound 0.003 µM",24%
same,"viability, T/C","second compound 0.1 µM, first compound 0.00949 µM",17%
same,"viability, T/C","second compound 0.1 µM, first compound 0.03 µM",9.95%
same,"viability, T/C","second compound 0.1 µM, first compound 0.0949 µM",8.49%
same,"viability, T/C","second compound 0.1 µM, first compound 0.3 µM",8.13%
same,"viability, T/C","second compound 0.316 µM, first compound 0.000949 µM",49.9%
same,"viability, T/C","second compound 0.316 µM, first compound 0.003 µM",26.9%
same,"viability, T/C","second compound 0.316 µM, first compound 0.00949 µM",12.6%
same,"viability, T/C","second compound 0.316 µM, first compound 0.03 µM",10.3%
same,"viability, T/C","second compound 0.316 µM, first compound 0.0949 µM",10.5%
same,"viability, T/C","second compound 0.316 µM, first compound 0.3 µM",8.25%
same,"viability, T/C","second compound 1 µM, first compound 0.000949 µM",57.1%
same,"viability, T/C","second compound 1 µM, first compound 0.003 µM",33.4%
same,"viability, T/C","second compound 1 µM, first compound 0.00949 µM",13%
same,"viability, T/C","second compound 1 µM, first compound 0.03 µM",10.9%
same,"viability, T/C","second compound 1 µM, first compound 0.0949 µM",11.2%
same,"viability, T/C","second compound 1 µM, first compound 0.3 µM",8.31%
same,"viability, T/C","second compound 3.16 µM, first compound 0.000949 µM",43.3%
same,"viability, T/C","second compound 3.16 µM, first compound 0.003 µM",24.5%
same,"viability, T/C","second compound 3.16 µM, first compound 0.00949 µM",12.6%
same,"viability, T/C","second compound 3.16 µM, first compound 0.03 µM",10.2%
same,"viability, T/C","second compound 3.16 µM, first compound 0.0949 µM",9.93%
same,"viability, T/C","second compound 3.16 µM, first compound 0.3 µM",8.57%
same,"viability, T/C","second compound 10 µM, first compound 0.000949 µM",48.4%
same,"viability, T/C","second compound 10 µM, first compound 0.003 µM",23.8%
same,"viability, T/C","second compound 10 µM, first compound 0.00949 µM",16.3%
same,"viability, T/C","second compound 10 µM, first compound 0.03 µM",10.4%
same,"viability, T/C","second compound 10 µM, first compound 0.0949 µM",9.78%
same,"viability, T/C","second compound 10 µM, first compound 0.3 µM",7.07%
O=C(c1ccc(F)c(F)c1Nc1ccc(I)cc1F)N1CC(O)([C@@H]2CCCCN2)C1 + CCn1c(-c2cc(N3CCN(C)CC3)cnc2C(C)OC)c2c3cc(ccc31)-c1csc(n1)CC(NC(=O)C1CC1C)C(=O)N1CCCC(N1)C(=O)OCC(C)(C)C2,IC50,second compound 0.000949 µM,< 3.16 nM
same,IC50,second compound 0.003 µM,< 3.16 nM
same,IC50,second compound 0.00949 µM,< 3.16 nM
same,IC50,second compound 0.03 µM,< 3.16 nM
same,IC50,second compound 0.0949 µM,< 3.16 nM
same,IC50,second compound 0.3 µM,< 3.16 nM
same,"viability, T/C","second compound 0.000949 µM, first compound 0.00316 µM",25.6%
same,"viability, T/C","second compound 0.000949 µM, first compound 0.01 µM",15.3%
same,"viability, T/C","second compound 0.000949 µM, first compound 0.0316 µM",12.3%
same,"viability, T/C","second compound 0.000949 µM, first compound 0.1 µM",7.55%
same,"viability, T/C","second compound 0.000949 µM, first compound 0.316 µM",6.32%
same,"viability, T/C","second compound 0.000949 µM, first compound 1 µM",4.06%
same,"viability, T/C","second compound 0.003 µM, first compound 0.00316 µM",26.8%
same,"viability, T/C","second compound 0.003 µM, first compound 0.01 µM",17.7%
same,"viability, T/C","second compound 0.003 µM, first compound 0.0316 µM",11%
same,"viability, T/C","second compound 0.003 µM, first compound 0.1 µM",7.55%
same,"viability, T/C","second compound 0.003 µM, first compound 0.316 µM",5.82%
same,"viability, T/C","second compound 0.003 µM, first compound 1 µM",4.4%
same,"viability, T/C","second compound 0.00949 µM, first compound 0.00316 µM",20%
same,"viability, T/C","second compound 0.00949 µM, first compound 0.01 µM",7.54%
same,"viability, T/C","second compound 0.00949 µM, first compound 0.0316 µM",7.52%
same,"viability, T/C","second compound 0.00949 µM, first compound 0.1 µM",5.46%
same,"viability, T/C","second compound 0.00949 µM, first compound 0.316 µM",5.26%
same,"viability, T/C","second compound 0.00949 µM, first compound 1 µM",4.12%
same,"viability, T/C","second compound 0.03 µM, first compound 0.00316 µM",14.1%
same,"viability, T/C","second compound 0.03 µM, first compound 0.01 µM",8.8%
same,"viability, T/C","second compound 0.03 µM, first compound 0.0316 µM",6.96%
same,"viability, T/C","second compound 0.03 µM, first compound 0.1 µM",5.38%
same,"viability, T/C","second compound 0.03 µM, first compound 0.316 µM",5.09%
same,"viability, T/C","second compound 0.03 µM, first compound 1 µM",4.3%
same,"viability, T/C","second compound 0.0949 µM, first compound 0.00316 µM",9.09%
same,"viability, T/C","second compound 0.0949 µM, first compound 0.01 µM",6.88%
same,"viability, T/C","second compound 0.0949 µM, first compound 0.0316 µM",5.8%
same,"viability, T/C","second compound 0.0949 µM, first compound 0.1 µM",5.07%
same,"viability, T/C","second compound 0.0949 µM, first compound 0.316 µM",5.29%
same,"viability, T/C","second compound 0.0949 µM, first compound 1 µM",4.24%
same,"viability, T/C","second compound 0.3 µM, first compound 0.00316 µM",11.8%
same,"viability, T/C","second compound 0.3 µM, first compound 0.01 µM",7.65%
same,"viability, T/C","second compound 0.3 µM, first compound 0.0316 µM",5.68%
same,"viability, T/C","second compound 0.3 µM, first compound 0.1 µM",5.13%
same,"viability, T/C","second compound 0.3 µM, first compound 0.316 µM",4.83%
same,"viability, T/C","second compound 0.3 µM, first compound 1 µM",4.09%
